# Assay results reported in article PMC6100724, “Proteome‐wide analysis of phospho‐regulated PDZ domain interactions” (Molecular Systems Biology, 2018).
# How the values were obtained:
# Assay in all cases: Phosphomimetic ProP-PD selection with NGS
# Scribble PDZ1 = molecular target: T1, Scribble PDZ1 (Homo sapiens, UniProt Q14160); format: binding; conditions: bait Scribble PDZ1; mean of selections 1-3
# T1 construct: human Scribble PDZ1 aa 719–829 in; made in house; host or cells: E. coli BL21 Gold (DE3)
# T1 sequence (Q14160 719-829): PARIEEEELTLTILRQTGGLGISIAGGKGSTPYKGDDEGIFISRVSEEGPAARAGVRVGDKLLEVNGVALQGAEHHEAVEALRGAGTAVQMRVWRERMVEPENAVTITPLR
# Description: (§1) Phage selections were carried out for four rounds following a protocol by Huang and Sidhu (Huang & Sidhu, 2011) with minor modifications. Non‐specific binding phage was removed by pre‐selections against immobilized GST throughout the selection. The selections against the (pre‐)phosphorylated wild‐type library were performed in 50 mM HEPES (pH 7.4) and 150 mM NaCl (HBS) following the same procedure after pre‐phosphorylation of the library.
# (§2) • Immobilize proteins (15 μg in 100 μl PBS) in a 96‐well MaxiSorp microtiter plate (NUNC) overnight at 4°C. • Start a 2YT culture of E. coli Omnimax supplemented with 100 μg/ml tetracycline to retain the F pilus epitope. • Block the wells with 200 μl 0.5% BSA in PBS for 2 h at 4°C. • Precipitate naïve phage library (10^11 cfu per selection) or amplified phage pool from the previous round of selection by adding one‐fifth the volume of PEG/NaCl. • Incubate on ice for 10 min, and pellet precipitated phage by centrifugation at 5,300 g for 15 min. Resuspend the phage pellet in 100 μl PBS per selection. • Add 100 μl of phage solution to the GST‐coated pre‐selection wells and incubate for 1 h. • Transfer the phage solution to the immobilized target proteins and allow it to bind for 2 h at 8°C. • Wash the plate four times with 200 μl cold wash buffer (PBS, 0.05% Tween‐20). • Elute bound phage by incubation with 100 μl log phase (0.6–0.8 OD600) E. coli Omnimax for 30 min at 37°C with shaking (200 RPM). • Add 10^12 cfu/ml M13K07 helper phage for hyperinfection of the bacteria and incubate as above for 45 min. • Transfer the bacterial culture to 10 ml 2YT supplemented with 50 μg/ml carbenicillin, 25 μg/ml kanamycin, and 300 μM IPTG and incubate overnight at 37°C while shaking. • Perform phage pool ELISA to monitor the progress of the selection as described previously (Huang & Sidhu, 2011).
# (§3) The naïve library and the enriched phage pools of the third day of selection were amplified and barcoded by PCR and analyzed by NGS as described elsewhere (McLaughlin & Sidhu, 2013; Ivarsson et al, 2014). The reads were demultiplexed using the barcode sequences and filtered by discarding sequences with a Phred quality score under 30. Sequences were mapped to the original library using Bowtie (Langmead et al, 2009) with two mismatches between reads and library sequence. Nucleotide mutations leading to amino acid substitutions were subsequently removed. Cutoff values of NGS counts were assigned for each pool. PWMs were generated based on the remaining peptides (aligned on the C‐termini) using WebLogo (Crooks et al, 2004).
# (§4) However, there was no significant correlation of the actual read counts (selection “strength”) and the initial representation in the library, reflecting the strong selection during phage display (wt+mimetic: P‐value: 0.49, ρ = −0.08, mimetic only: P‐value: 0.069, ρ = −0.2, wt only: P‐value: 0.12, ρ = 0.17). Consequently, the amount of reads for each binder after phage display is not a function of the amount of input reads in the naïve library and no modeling based on the input library frequencies to score the interactions is necessary. To allow for comparison between replicate selections, we used the fraction of NGS reads within a certain set, instead of the absolute number of NGS reads, as the absolute numbers differ between different NGS batches.
# Scribble PDZ3 = format: binding, human; conditions: bait Scribble PDZ3
# Description: as §1, §2, §3, §4
# DLG1 PDZ2 = molecular target: T2, DLG1 PDZ2 (Homo sapiens, UniProt Q12959); format: binding; conditions: mean of selections 1-3, bait DLG1 PDZ2
# T2 construct: human DLG1 PDZ2 aa 311–407 in a modified pRSET vector 40; made in house; host or cells: E. coli BL21 Gold (DE3)
# T2 sequence (Q12959 311-407): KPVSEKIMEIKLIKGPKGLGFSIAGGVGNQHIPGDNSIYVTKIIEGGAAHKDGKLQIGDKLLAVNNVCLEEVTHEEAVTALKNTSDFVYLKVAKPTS
# Description: as §1, §2, §3, §4
# [1] = mean of selections 1-3, phosphomimetic peptide
# [2] = mean of selections 1-3, wild type peptide
sequence,measurement,setting,value
DKEEFLTWL,Mean fraction #NGS counts mimetic peptide / total count selection,Scribble PDZ1,0
same,Mean fraction #NGS counts mimetic peptide / total count selection,Scribble PDZ3; mean over selections 1-3,0.0001294
DKESFLTWL,Mean fraction #NGS counts wt peptide / total counts selection,Scribble PDZ1,0.000274
same,Mean fraction #NGS counts wt peptide / total counts selection,Scribble PDZ3; mean over selections 1-3,0.01024
DSEILETVV,Mean fraction #NGS counts mimetic peptide / total count selection,DLG1 PDZ2,0
DSSILSTVV,Mean fraction #NGS counts wt peptide / total counts selection,DLG1 PDZ2,0.0001102
EIDLWETAL,Mean fraction #NGS counts mimetic peptide / total count selection,Scribble PDZ3; mean over selections 1-3,0.0004512
EPTVHVTEL,Mean fraction #NGS counts mimetic peptide / total count selection,Scribble PDZ1,0.0001138
same,Mean fraction #NGS counts mimetic peptide / total count selection,Scribble PDZ3; mean over selections 1-3,1.586e-5
ERLEYEETL,Mean fraction #NGS counts mimetic peptide / total count selection,Scribble PDZ3; mean over selections 1-3,0
ERLEYETEL,Mean fraction #NGS counts mimetic peptide / total count selection,Scribble PDZ3; [1],3.548e-5
ERLEYETTL,Mean fraction #NGS counts wt peptide / total counts selection,Scribble PDZ3; [2],0.0004529
same,Mean fraction #NGS counts wt peptide / total counts selection,Scribble PDZ3; mean over selections 1-3,0.0004529
GEGGRQSVV,Mean fraction #NGS counts mimetic peptide / total count selection,DLG1 PDZ2; phosphomimetic peptide,9.343e-5
GLMKRRSEV,Mean fraction #NGS counts mimetic peptide / total count selection,DLG1 PDZ2,6.06e-5
GLMKRRSSV,Mean fraction #NGS counts wt peptide / total counts selection,DLG1 PDZ2,0
GSGGRQSVV,Mean fraction #NGS counts wt peptide / total counts selection,DLG1 PDZ2; wild type peptide,0.003121
HEIKQETAV,Mean fraction #NGS counts mimetic peptide / total count selection,DLG1 PDZ2,0.0002182
HEIKQSTAV,Mean fraction #NGS counts mimetic peptide / total count selection,DLG1 PDZ2; phosphomimetic peptide,0
HEKVFESAL,Mean fraction #NGS counts mimetic peptide / total count selection,Scribble PDZ1,0.0004614
same,Mean fraction #NGS counts mimetic peptide / total count selection,Scribble PDZ3; mean over selections 1-3,0.07851
HEKVFTSAL,Mean fraction #NGS counts wt peptide / total counts selection,Scribble PDZ1,0
same,Mean fraction #NGS counts wt peptide / total counts selection,Scribble PDZ3; mean over selections 1-3,0.0001136
HFESLESEV,Mean fraction #NGS counts mimetic peptide / total count selection,DLG1 PDZ2,0
HFSSLESEV,Mean fraction #NGS counts wt peptide / total counts selection,DLG1 PDZ2,5.084e-5
IEFTQTEQF,Mean fraction #NGS counts mimetic peptide / total count selection,DLG1 PDZ2,0.001455
IEWLAFSVL,Mean fraction #NGS counts mimetic peptide / total count selection,Scribble PDZ1,4.38e-5
IPLTRETTF,Mean fraction #NGS counts mimetic peptide / total count selection,Scribble PDZ3; mean over selections 1-3,0.0004175
IPLTRTTTF,Mean fraction #NGS counts wt peptide / total counts selection,Scribble PDZ3; mean over selections 1-3,0
ISFTQTSQF,Mean fraction #NGS counts wt peptide / total counts selection,DLG1 PDZ2,6.749e-6
ISWLAFSVL,Mean fraction #NGS counts wt peptide / total counts selection,Scribble PDZ1,0
ISYRREEAI,Mean fraction #NGS counts mimetic peptide / total count selection,Scribble PDZ3; mean over selections 1-3,0
ISYRRESAI,Mean fraction #NGS counts mimetic peptide / total count selection,DLG1 PDZ2,0
same,Mean fraction #NGS counts wt peptide / total counts selection,DLG1 PDZ2,1.436e-5
same,Mean fraction #NGS counts wt peptide / total counts selection,Scribble PDZ3; mean over selections 1-3,0.0002548
KEEPFLTWL,Mean fraction #NGS counts mimetic peptide / total count selection,Scribble PDZ3; mean over selections 1-3,0.001054
KKRMVEEPL,Mean fraction #NGS counts mimetic peptide / total count selection,Scribble PDZ3; mean over selections 1-3,0
KKRMVESPL,Mean fraction #NGS counts wt peptide / total counts selection,Scribble PDZ3; mean over selections 1-3,0.000138
KLSEIESDV,Mean fraction #NGS counts mimetic peptide / total count selection,DLG1 PDZ2,0
same,Mean fraction #NGS counts mimetic peptide / total count selection,Scribble PDZ3; mean over selections 1-3,6.057e-6
KSEPFLTWL,Mean fraction #NGS counts wt peptide / total counts selection,Scribble PDZ3; mean over selections 1-3,0.002017
KYVDAETEL,Mean fraction #NGS counts mimetic peptide / total count selection,Scribble PDZ3; [1],0.0004194
KYVDAETSL,Mean fraction #NGS counts wt peptide / total counts selection,Scribble PDZ3; [2],0.0001259
LAPNIIEQL,Mean fraction #NGS counts mimetic peptide / total count selection,Scribble PDZ1,2.8202e-5
LAPNIISQL,Mean fraction #NGS counts wt peptide / total counts selection,Scribble PDZ1,0.000119
LKSGRDSTV,Mean fraction #NGS counts mimetic peptide / total count selection,DLG1 PDZ2,0
same,Mean fraction #NGS counts wt peptide / total counts selection,DLG1 PDZ2,0.0003449
LRLQSETEV,Mean fraction #NGS counts mimetic peptide / total count selection,DLG1 PDZ2,7.62e-5
LRLQSETSV,Mean fraction #NGS counts wt peptide / total counts selection,DLG1 PDZ2,3.877e-6
LSIEKEEKL,Mean fraction #NGS counts mimetic peptide / total count selection,Scribble PDZ3; mean over selections 1-3,3.894e-6
LSIEKETKL,Mean fraction #NGS counts wt peptide / total counts selection,Scribble PDZ3; mean over selections 1-3,0.01518
MKRLTETRL,Mean fraction #NGS counts mimetic peptide / total count selection,Scribble PDZ1,0.01768
same,Mean fraction #NGS counts mimetic peptide / total count selection,Scribble PDZ3; mean over selections 1-3,0.001041
